The text below walks through data of patent publication US20260217651A1 (priority 2022, published 2026).

Test [1] deals with SD rats. The test is described as follows: animal or person. It is filed as in vivo, rat. To be noted: iv; for minimal effective dose: Rattus norvegicus, read-out: Minimal effective anesthetic dose(mg/kg).
Test [2] concerns SD rats. The experiment in a line: animal or person. It counts as in vivo. To be noted: Rattus norvegicus, iv, read-out: Minimal effective analgesic dose(mg/kg).

Like-named read-outs stand apart in the source and are kept apart here. Some results are limits rather than exact numbers.

On to `CCCC(=O)N(c1ccccc1)C1CCN(c2cc(C(C)C)c(O)c(C(C)C)c2)CC1` [Cpd-13], for which the minimal effective dose in the test on SD rats [1] is 5 to 10 mg/kg. For the same compound, in the test on SD rats [1] (rat, in vivo), the “Onset time” value was found to be 0.35 min, the “Righting Reflex Duration” value came out at 20.27 min and the “Sedation Duration” value was 41.57 min. For the same compound, the minimal effective dose in the test with SD rats [2] was 5 to 10 mg/kg.
For the compound `CCOC(=O)N(c1cccc(Cl)c1)N1CCN(c2cc(C(C)C)c(O)c([C@H](C)C3CC3)c2)CC1` [Cpd-69], the minimal effective dose in the test with SD rats [1] fell in the range of 10 to 20 mg/kg. Further, in the test with SD rats [1] (rat, in vivo), the “Onset time” value was in the range of 0.68 to 2.12 min, the “Righting Reflex Duration” value lay within 1.28 to 74.05 min and the “Sedation Duration” value was 19.78 to 160.07 min. The minimal effective dose in the test on SD rats [2] was 10 to 20 mg/kg.
As for `COc1ccc(C2(C(=O)OC(C)C)CCN(c3cc(C(C)C)c(O)c(C(C)C)c3)CC2)cc1` [Cpd-123], the minimal effective dose in the test with SD rats [1] is 20 to 40 mg/kg. In addition, in the test with SD rats [1] (rat, in vivo), the “Onset time” value amounted to 0.77 min, the “Righting Reflex Duration” value worked out at 24.08 min and the “Sedation Duration” value came out at 75.50 min. For the same compound, the minimal effective dose in the test with SD rats [2] is 20 to 40 mg/kg.
For the compound `CCOC(=O)N(c1ccc(C)cc1)N1CCN(c2cc(C(C)C)c(O)c(C(C)C)c2)CC1` [Cpd-66], the minimal effective dose in the test with SD rats [1] lay in the range of 20 to 40 mg/kg. For the same compound, in the test on SD rats [1] (rat, in vivo), the “Onset time” value came to 0.22 min, the “Righting Reflex Duration” value is on record as 40.40 min and the “Sedation Duration” value was 115.20 min. The minimal effective dose with SD rats [2] was 20 to 40 mg/kg.
As for `CCOC(=O)N(c1ccc(OC)c(OC)c1)N1CCN(c2cc(C(C)C)c(O)c(C(C)C)c2)CC1` [Cpd-96], the minimal effective dose in the test on SD rats [1] lay within 20 to 40 mg/kg. Further, in the test on SD rats [1] (rat, in vivo), the “Onset time” value was in the range of 0.13 to 0.75 min, the “Righting Reflex Duration” value lay within 1.32 to 43.20 min and the “Sedation Duration” value was in the range of 86.20 to 295.93 min. Also, in the test on SD rats [2], the minimal effective dose lay in the range of 20 to 40 mg/kg.
As to `COC(=O)N(c1ccccc1)N1CCN(c2cc(C(C)C)c(O)c(C(C)C)c2)CC1` [Cpd-45], the minimal effective dose with SD rats [1] is 5 to 10 mg/kg. For the same compound, in the test on SD rats [1] (rat, in vivo), the “Onset time” value was in the range of 0.38 to 0.58 min, the “Righting Reflex Duration” value is 9.45 to 21.03 min and the “Sedation Duration” value fell in the range of 21.22 to 30.92 min. The minimal effective dose in the test with SD rats [2] fell in the range of 5 to 10 mg/kg.
With `CCOC(=O)C1(c2cccs2)CCN(c2cc(C(C)C)c(O)c(C(C)C)c2)CC1` [Cpd-24], the minimal effective dose in the test with SD rats [1] was 5 to 10 mg/kg. For the same compound, in the test on SD rats [1] (rat, in vivo), the “Onset time” value was 0.85 min, the “Righting Reflex Duration” value came to 11.60 min and the “Sedation Duration” value is on record as 21.70 min. Also, in the test on SD rats [2], the minimal effective dose is 5 to 10 mg/kg.
Consider `CCC(=O)N(c1ccccc1)C1CCN(c2cc(C(C)C)c(O)c(C(C)C)c2)CC1` [Cpd-1], for which the minimal effective dose in the test with SD rats [1] is less than 5 mg/kg. Further, in the test on SD rats [1] (rat, in vivo), the “Onset time” value was in the range of 0.38 to 0.62 min, the “Righting Reflex Duration” value fell in the range of 6.27 to 10.78 min and the “Sedation Duration” value lay in the range of 19.02 to 22.97 min. For the same compound, the minimal effective dose with SD rats [2] is less than 5 mg/kg.
As for `CCOC(=O)N(c1ccc(Cl)cc1)N1CCN(c2cc(C(C)C)c(O)c([C@H](C)C3CC3)c2)CC1` [Cpd-73], the minimal effective dose in the test on SD rats [1] was 10 to 20 mg/kg. In the test with SD rats [1] (rat, in vivo), the “Onset time” value lay in the range of 0.83 to 1.65 min, the “Righting Reflex Duration” value fell in the range of 8.78 to 25.28 min and the “Sedation Duration” value lay within 44.83 to 119.62 min. Further, the minimal effective dose in the test on SD rats [2] was 20 to 40 mg/kg.
In the same order, the values of `CCOC(=O)N(c1cccc(OC)c1)N1CCN(c2cc(C(C)C)c(O)c(C(C)C)c2)CC1` [Cpd-63] are 10 to 20 mg/kg, 0.18 to 0.50 min, 6.92 to 33.82 min, 50.33 to 193.58 min and 20 to 40 mg/kg.
In the same order, the values of `CCOC(=O)C1(c2ccccc2)CCN(c2cc(C(C)C)c(O)c([C@H](C)C3CC3)c2)CC1` [Cpd-25] are 5 to 10 mg/kg, 1.28 to 2.95 min, 3.45 to 6.43 min, 17.48 to 23.03 min and 5 to 10 mg/kg.
In the same order, the values of `CCOC(=O)N(c1cccc(C)c1)N1CCN(c2cc(C(C)C)c(O)c([C@H](C)C3CC3)c2)CC1` [Cpd-70] are 10 to 20 mg/kg, 0.38 to 1.07 min, 5.02 to 39.35 min, 48.32 to 106.60 min and 10 to 20 mg/kg.
`CCOC(=O)N(Cc1ccsc1)N1CCN(c2cc(C(C)C)c(O)c(C(C)C)c2)CC1` [Cpd-125]: in the test with SD rats [1], the minimal effective dose was 10 to 20 mg/kg. In the test with SD rats [1] (rat, in vivo), the “Onset time” value was found to be 1.22 min, the “Righting Reflex Duration” value came out at 6.87 min and the “Sedation Duration” value worked out at 53.93 min. Besides, the minimal effective dose in the test on SD rats [2] was in the range of 10 to 20 mg/kg.
Regarding `CCOC(=O)C1(c2ccccc2)CCN(c2cc(C(C)C)c(O)c(C(C)C)c2)CC1` [Cpd-21], the minimal effective dose in the test with SD rats [1] was less than 5 mg/kg. In the test on SD rats [1] (rat, in vivo), the “Onset time” value is 1.35 min, the “Righting Reflex Duration” value came to 1.32 min and the “Sedation Duration” value is 20.10 min. In addition, the minimal effective dose with SD rats [2] is less than 5 mg/kg.
Take `CCOC(=O)N(c1ccccc1)N1CCN(c2cc(C(C)C)c(O)c([C@@H](C)C3CC3)c2)CC1` [Cpd-105]: the minimal effective dose in the test with SD rats [1] lay in the range of 5 to 10 mg/kg. Further, in the test on SD rats [1] (rat, in vivo), the “Onset time” value was 0.68 to 1.80 min, the “Righting Reflex Duration” value lay within 0.24 to 22.82 min and the “Sedation Duration” value lay in the range of 50.17 to 52.20 min. Also, in the test on SD rats [2], the minimal effective dose was in the range of 10 to 20 mg/kg.
As to `CCC(=O)N(c1ccccc1)N1CCN(c2cc(C(C)C)c(O)c(C(C)C)c2)CC1` [Cpd-46], in the test with SD rats [1], the minimal effective dose is 5 to 10 mg/kg. For the same compound, in the test with SD rats [1] (rat, in vivo), the “Onset time” value was 1.58 min, the “Righting Reflex Duration” value stood at 2.17 min and the “Sedation Duration” value is reported as 12.95 min. Further, the minimal effective dose in the test on SD rats [2] was 5 to 10 mg/kg.
On to `CCOC(=O)C1(c2cccc(OC)c2)CCN(c2cc(C(C)C)c(O)c(C(C)C)c2)CC1` [Cpd-39], for which the minimal effective dose with SD rats [1] lay in the range of 10 to 20 mg/kg. Also, in the test on SD rats [1] (rat, in vivo), the “Onset time” value is 0.73 to 1.07 min, the “Righting Reflex Duration” value was in the range of 7.45 to 24.00 min and the “Sedation Duration” value lay within 34.33 to 39.48 min. Besides, the minimal effective dose in the test on SD rats [2] lay within 10 to 20 mg/kg.
For the compound `CCOC(=O)N(c1cccc(Cl)c1)N1CCN(c2cc(C(C)C)c(O)c(C(C)C)c2)CC1` [Cpd-61], in the test on SD rats [1], the minimal effective dose was 10 to 20 mg/kg. In addition, in the test with SD rats [1] (rat, in vivo), the “Onset time” value is 0.55 to 1.25 min, the “Righting Reflex Duration” value lay within 4.15 to 41.88 min and the “Sedation Duration” value lay in the range of 89.98 to 162.23 min. For the same compound, the minimal effective dose in the test on SD rats [2] is 10 to 20 mg/kg.
Consider `CCOC(=O)N(c1ccc(OC)cc1)N1CCN(c2cc(C(C)C)c(O)c([C@@H](C)C3CC3)c2)CC1` [Cpd-107], for which the minimal effective dose in the test on SD rats [1] lay within 5 to 10 mg/kg. For the same compound, in the test on SD rats [1] (rat, in vivo), the “Onset time” value was in the range of 0.42 to 1.52 min, the “Righting Reflex Duration” value was 0.72 to 34.8 min and the “Sedation Duration” value was in the range of 34.37 to 73.58 min. The minimal effective dose in the test on SD rats [2] was in the range of 10 to 20 mg/kg.
In the same order, the values of `CCOC(=O)N(c1ccc(OCC(C)C)cc1)N1CCN(c2cc(C(C)C)c(O)c(C(C)C)c2)CC1` [Cpd-104] are 20 to 40 mg/kg, 0.42 min, 59.33 min, 377.87 min and 20 to 40 mg/kg.
As for `CCOC(=O)N(Cc1ccc(OC)cc1)N1CCN(c2cc(C(C)C)c(O)c(C(C)C)c2)CC1` [Cpd-124], the minimal effective dose with SD rats [1] was 20 to 40 mg/kg. Moreover, in the test on SD rats [1] (rat, in vivo), the “Onset time” value was 0.15 to 0.68 min and the “Righting Reflex Duration” value was 2.83 to 65.08 min. For the same compound, the minimal effective dose in the test on SD rats [2] lay within 20 to 40 mg/kg.
Regarding `CCOC(=O)N(c1ccc(Cl)cc1)N1CCN(c2cc(C(C)C)c(O)c(C(C)C)c2)CC1` [Cpd-65], in the test on SD rats [1], the minimal effective dose lay within 10 to 20 mg/kg. Besides, in the test with SD rats [1] (rat, in vivo), the “Onset time” value was 0.92 to 1.17 min, the “Righting Reflex Duration” value fell in the range of 11.30 to 16.67 min and the “Sedation Duration” value fell in the range of 101.42 to 123.97 min. The minimal effective dose in the test with SD rats [2] fell in the range of 10 to 20 mg/kg.
As for `CC(C)OC(=O)C1(c2ccccc2)CCN(c2cc(C(C)C)c(O)c(C(C)C)c2)CC1` [Cpd-26], the minimal effective dose in the test with SD rats [1] lay within 5 to 10 mg/kg. Also, in the test with SD rats [1] (rat, in vivo), the “Onset time” value was in the range of 0.98 to 1.77 min, the “Righting Reflex Duration” value lay in the range of 12.33 to 28.05 min and the “Sedation Duration” value fell in the range of 26.52 to 182.97 min. In addition, the minimal effective dose in the test with SD rats [2] was 5 to 10 mg/kg.
Turning to `CC(C)c1cc(N2CCC(C(=O)OC(C)(C)C)CC2)cc([C@H](C)C2CC2)c1O` [Cpd-85], in the test on SD rats [1] (rat, in vivo), the “Minimal effective anesthetic dose(mg/kg)” value is “A (key: A≤5 mg/kg; 5 mg/kg<B≤10 mg/kg; 10 mg/kg<C≤20 mg/kg; 20 mg/kg<D≤40 mg/k; E>40 mg/kg)”, the “Onset time” value lay within 0.18 to 0.55 min, the “Righting Reflex Duration” value is 1.28 to 4.92 min and the “Sedation Duration” value fell in the range of 5.05 to 15.13 min.
Regarding `CCOC(=O)C1(c2ccc(F)cc2F)CCN(c2cc(C(C)C)c(O)c(C(C)C)c2)CC1` [Cpd-27], in the test with SD rats [1], the minimal effective dose fell in the range of 20 to 40 mg/kg. For the same compound, in the test with SD rats [1] (rat, in vivo), the “Onset time” value stood at 1.47 min, the “Righting Reflex Duration” value is listed as 36.80 min and the “Sedation Duration” value worked out at 67.40 min.
In the same order, the values of `CCC(=O)N(C1CC1)C1CCN(c2cc(C(C)C)c(O)c(C(C)C)c2)CC1` [Cpd-5] are 5 to 10 mg/kg, 0.45 min, 6.40 min and 17.12 min.
In the same order, the values of `CC(C)C(=O)N(c1ccccc1)C1CCN(c2cc(C(C)C)c(O)c(C(C)C)c2)CC1` [Cpd-14] are 5 to 10 mg/kg, 0.48 min, 17.60 min and 42.83 min.
In the same order, the values of `CCC(=O)N(CC1CCN(c2cc(C(C)C)c(O)c(C(C)C)c2)CC1)c1ccccc1` [Cpd-32] are 5 to 10 mg/kg, 0.52 min, 2.67 min and 19.68 min.
For the compound `CC(C)OC(=O)N(c1ccccc1)C1CCN(c2cc(C(C)C)c(O)c(C(C)C)c2)CC1` [Cpd-15], in the test with SD rats [1], the minimal effective dose was in the range of 5 to 10 mg/kg. Further, in the test on SD rats [1] (rat, in vivo), the “Onset time” value is given as 0.67 min, the “Righting Reflex Duration” value was 16.28 min and the “Sedation Duration” value is listed as 29.90 min.
